The data set can be described thus: recombinant barcode read abundance after kanamycin selection (control-corrected) (log10(CPM+1)); higher = more efficient recombination; sequences stand for … in AGTGCAGAGAAAATCGGCCAGTTTTCTCTGCCTGCAGTCCGCATGCCGT…AGATTTATGCAGCGGACTGCCTTTCTCCCAAAGTGATAAACCGGACAGTATCATGGACCGGTTTTCCCGGTAATCCGTATTTGCAAGGTTGGTTTCACT; site = the 11-nt target. The method in brief:
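In a pooled screen in E. coli, targets were paired with target-binding loops of the IS621 bridge RNA. Each oligo carried a promoter, a target, a barcode and the first 104 bridge RNA bases driven by J23119, and was Gibson-cloned into a vector holding the remaining 73 bp and a T7-inducible recombinase before co-electroporation with a donor plasmid. Duplicate platings went onto chloramphenicol/ampicillin LB agar as the control or onto chloramphenicol/ampicillin/kanamycin with 0.1 mM IPTG. Recombination efficiency is the averaged, control-corrected count per million of barcodes at recombinant junctions, given as log10(CPM+1).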
Take “GGGACCTCTTGGGTTCTAACCTGTTGCTC (site GGGACCTCTGA)”: the “recombinant barcode read abundance (log10)” value worked out at 1.24.

Turning to “GGGACCTCTTGGGTTCTAACCTGTTGCTC (site GTGACCTCTCA)”, the “recombinant barcode read abundance (log10)” value is 0.167.

Regarding “GGGACGACTTGGGTTCTAACCTGTTGCTA (site GGGACGACTAA)”, the “recombinant barcode read abundance (log10)” value came to 0.161.

“GGGACGACTTGGGTTCTAACCTGTTGCTA (site GGGACGACTTA)”: the “recombinant barcode read abundance (log10)” value worked out at 1.35.

For “GGGATACCTTGGGTTCTAACCTGTTGCCT (site GCGTTACCTAG)”, the “recombinant barcode read abundance (log10)” value turned out to be 0.0414.

Consider “GGGATACCTTGGGTTCTAACCTGTTGCCT (site GGGATACCTAG)”, for which the “recombinant barcode read abundance (log10)” value came to 2.6.

With “GGGCACTCTTGGGTTCTAACCTGTTGCAT (site GGGCACTCTAA)”, the “recombinant barcode read abundance (log10)” value came to 0.75.

In the case of “GGGCACTCTTGGGTTCTAACCTGTTGCAT (site GGGCACTCTAC)”, the “recombinant barcode read abundance (log10)” value is 0.132.

In the case of “GGGCACTCTTGGGTTCTAACCTGTTGCAT (site GGGCACTCTAG)”, the “recombinant barcode read abundance (log10)” value amounted to 0.606.

For “GGGCACTCTTGGGTTCTAACCTGTTGCAT (site GGGCACTCTAT)”, the “recombinant barcode read abundance (log10)” value worked out at 2.22.

With “GGGCACTCTTGGGTTCTAACCTGTTGCCT (site GGGCACTCTAA)”, the “recombinant barcode read abundance (log10)” value amounted to 0.122.

Take “GGGCACTCTTGGGTTCTAACCTGTTGCCT (site GGGCACTCTAC)”: the “recombinant barcode read abundance (log10)” value was determined as 0.0754.

On to “GGGCACTCTTGGGTTCTAACCTGTTGCCT (site GGGCACTCTAG)”, for which the “recombinant barcode read abundance (log10)” value amounted to 1.22.

“GGGCACTCTTGGGTTCTAACCTGTTGCCT (site GGGCACTCTAT)”: the “recombinant barcode read abundance (log10)” value was 0.585.

Regarding “GGGCACTCTTGGGTTCTAACCTGTTGCTT (site GGGCACTCTAA)”, the “recombinant barcode read abundance (log10)” value is 1.93.

Take “GGGCACTCTTGGGTTCTAACCTGTTGCTT (site GGGCACTCTAC)”: the “recombinant barcode read abundance (log10)” value came out at 0.503.

Turning to “GGGCACTCTTGGGTTCTAACCTGTTGCTT (site GGGCACTCTAG)”, the “recombinant barcode read abundance (log10)” value came out at 1.35.

“GGGCACTCTTGGGTTCTAACCTGTTGCTT (site GGGCACTCTAT)”: the “recombinant barcode read abundance (log10)” value was 1.54.

On to “GGGCAGGCTTGGGTTCTAACCTGTTGCCT (site ATCGTATCTGC)”, for which the “recombinant barcode read abundance (log10)” value was 0.189.

With “GGGCAGGCTTGGGTTCTAACCTGTTGCCT (site GGGCAGGCTAG)”, the “recombinant barcode read abundance (log10)” value came out at 0.969.

Turning to “GGGCCCGCTTGGGTTCTAACCTGTTGCTA (site GGGCCCGCTTA)”, the “recombinant barcode read abundance (log10)” value is 1.68.

Consider “GGGCCCGCTTGGGTTCTAACCTGTTGCTA (site GGTCCCGCTTG)”, for which the “recombinant barcode read abundance (log10)” value stood at 0.0696.

As to “GGGCCTACTTGGGTTCTAACCTGTTGCTC (site GGGCCTACTAA)”, the “recombinant barcode read abundance (log10)” value is 0.248.

For “GGGCCTACTTGGGTTCTAACCTGTTGCTC (site GGGCCTACTCA)”, the “recombinant barcode read abundance (log10)” value came to 0.0546.

In the case of “GGGCCTACTTGGGTTCTAACCTGTTGCTC (site GGGCCTACTGA)”, the “recombinant barcode read abundance (log10)” value turned out to be 0.29.

For the sequence “GGGCCTACTTGGGTTCTAACCTGTTGCTC (site GGGCCTACTTA)”, the “recombinant barcode read abundance (log10)” value came out at 0.171.

Take “GGGCCTACTTGGGTTCTAACCTGTTGCTT (site GGGCCTACTAA)”: the “recombinant barcode read abundance (log10)” value was determined as 0.914.

“GGGCCTACTTGGGTTCTAACCTGTTGCTT (site GGGCCTACTCA)”: the “recombinant barcode read abundance (log10)” value was 0.369.

In the case of “GGGCCTACTTGGGTTCTAACCTGTTGCTT (site GGGCCTACTGA)”, the “recombinant barcode read abundance (log10)” value worked out at 0.255.

In the case of “GGGCCTACTTGGGTTCTAACCTGTTGCTT (site GGGCCTACTTA)”, the “recombinant barcode read abundance (log10)” value is 0.063.

As to “GGGCCTTCTTGGGTTCTAACCTGTTGCAT (site GGGACTTCTAT)”, the “recombinant barcode read abundance (log10)” value worked out at 0.24.

For “GGGCCTTCTTGGGTTCTAACCTGTTGCAT (site GGGCCTTCTAT)”, the “recombinant barcode read abundance (log10)” value was 1.07.

On to “GGGCCTTCTTGGGTTCTAACCTGTTGCAT (site GGGGCTTCTAT)”, for which the “recombinant barcode read abundance (log10)” value was found to be 0.31.

In the case of “GGGCCTTCTTGGGTTCTAACCTGTTGCAT (site GGGTCTTCTAT)”, the “recombinant barcode read abundance (log10)” value was 0.0646.

“GGGGACCCTTGGGTTCTAACCTGTTGCGA (site GGGGACCCTAC)”: the “recombinant barcode read abundance (log10)” value was found to be 1.74.

“GGGGACCCTTGGGTTCTAACCTGTTGCGA (site GGGGACCCTCC)”: the “recombinant barcode read abundance (log10)” value turned out to be 0.877.

As for “GGGGACCCTTGGGTTCTAACCTGTTGCGA (site GGGGACCCTGC)”, the “recombinant barcode read abundance (log10)” value worked out at 0.247.

As to “GGGGACCCTTGGGTTCTAACCTGTTGCGA (site GGGGACCCTTC)”, the “recombinant barcode read abundance (log10)” value was 2.48.

“GGGGACCCTTGGGTTCTAACCTGTTGCGC (site GGGGACCCTAC)”: the “recombinant barcode read abundance (log10)” value is 2.24.

For the sequence “GGGGACCCTTGGGTTCTAACCTGTTGCGC (site GGGGACCCTCC)”, the “recombinant barcode read abundance (log10)” value was 0.0282.

Turning to “GGGGACCCTTGGGTTCTAACCTGTTGCGC (site GGGGACCCTGC)”, the “recombinant barcode read abundance (log10)” value turned out to be 3.3.

With “GGGGACCCTTGGGTTCTAACCTGTTGCGC (site GGGGACCCTTC)”, the “recombinant barcode read abundance (log10)” value amounted to 0.283.

For “GGGGAGCCTTGGGTTCTAACCTGTTGCGG (site GGGGAGCCTCC)”, the “recombinant barcode read abundance (log10)” value came to 2.38.

Turning to “GGGGAGCCTTGGGTTCTAACCTGTTGCGG (site GGGGATCCTTC)”, the “recombinant barcode read abundance (log10)” value is 0.335.

On to “GGGGCACCTTGGGTTCTAACCTGTTGCGT (site GGGGCACCTAA)”, for which the “recombinant barcode read abundance (log10)” value amounted to 1.16.

On to “GGGGCACCTTGGGTTCTAACCTGTTGCGT (site GGGGCACCTAC)”, for which the “recombinant barcode read abundance (log10)” value is 3.72.

“GGGGCACCTTGGGTTCTAACCTGTTGCGT (site GGGGCACCTAG)”: the “recombinant barcode read abundance (log10)” value came out at 0.492.

With “GGGGCACCTTGGGTTCTAACCTGTTGCGT (site GGGGCACCTAT)”, the “recombinant barcode read abundance (log10)” value stood at 2.61.

Regarding “GGGGCATCTTGGGTTCTAACCTGTTGCCT (site GGGACATCTAG)”, the “recombinant barcode read abundance (log10)” value is 0.105.

On to “GGGGCATCTTGGGTTCTAACCTGTTGCCT (site GGGGCATCTAG)”, for which the “recombinant barcode read abundance (log10)” value was found to be 0.0863.

As for “GGGGCATCTTGGGTTCTAACCTGTTGCTT (site GGGGCATCTAA)”, the “recombinant barcode read abundance (log10)” value was 0.95.

Take “GGGGCATCTTGGGTTCTAACCTGTTGCTT (site GGGGCCTCTAA)”: the “recombinant barcode read abundance (log10)” value was 0.0583.

Turning to “GGGGCATCTTGGGTTCTAACCTGTTGCTT (site GGGGCGTCTAA)”, the “recombinant barcode read abundance (log10)” value worked out at 0.0873.

As for “GGGGCATCTTGGGTTCTAACCTGTTGCTT (site GGGGCTTCTAA)”, the “recombinant barcode read abundance (log10)” value worked out at 0.0362.

Consider “GGGGCCTCTTGGGTTCTAACCTGTTGCAG (site GGGGCCTCTCT)”, for which the “recombinant barcode read abundance (log10)” value worked out at 3.05.

“GGGGCCTCTTGGGTTCTAACCTGTTGCAG (site GGTGCCTCTAT)”: the “recombinant barcode read abundance (log10)” value is 0.213.

As for “GGGGCGACTTGGGTTCTAACCTGTTGCCT (site GGGGCGACTAG)”, the “recombinant barcode read abundance (log10)” value turned out to be 0.358.

As for “GGGGCGACTTGGGTTCTAACCTGTTGCCT (site GGGGCGCCTAG)”, the “recombinant barcode read abundance (log10)” value stood at 0.0568.

Turning to “GGGGCGACTTGGGTTCTAACCTGTTGCCT (site GGGGCGGCTAG)”, the “recombinant barcode read abundance (log10)” value was 0.13.

With “GGGGCGACTTGGGTTCTAACCTGTTGCCT (site GGGGCGTCTAG)”, the “recombinant barcode read abundance (log10)” value stood at 0.0176.

In the case of “GGGGCTTCTTGGGTTCTAACCTGTTGCAT (site GGGACTTCTAT)”, the “recombinant barcode read abundance (log10)” value is 0.158.

With “GGGGCTTCTTGGGTTCTAACCTGTTGCAT (site GGGCCTTCTAT)”, the “recombinant barcode read abundance (log10)” value was found to be 0.0416.

As to “GGGGCTTCTTGGGTTCTAACCTGTTGCAT (site GGGGCTTCTAT)”, the “recombinant barcode read abundance (log10)” value stood at 2.07.

Turning to “GGGGCTTCTTGGGTTCTAACCTGTTGCAT (site GGGTCTTCTAT)”, the “recombinant barcode read abundance (log10)” value is 0.27.

For “GGGGTTCCTTGGGTTCTAACCTGTTGCCT (site GGGGTTCCTAA)”, the “recombinant barcode read abundance (log10)” value was determined as 0.223.

In the case of “GGGGTTCCTTGGGTTCTAACCTGTTGCCT (site GGGGTTCCTAC)”, the “recombinant barcode read abundance (log10)” value is 1.56.

With “GGGGTTCCTTGGGTTCTAACCTGTTGCCT (site GGGGTTCCTAG)”, the “recombinant barcode read abundance (log10)” value was 2.3.

Consider “GGGGTTCCTTGGGTTCTAACCTGTTGCCT (site GGGGTTCCTAT)”, for which the “recombinant barcode read abundance (log10)” value stood at 1.42.

With “GGGGTTCCTTGGGTTCTAACCTGTTGCGT (site GGGGTTCCTAA)”, the “recombinant barcode read abundance (log10)” value is 0.321.

Regarding “GGGGTTCCTTGGGTTCTAACCTGTTGCGT (site GGGGTTCCTAC)”, the “recombinant barcode read abundance (log10)” value was 3.32.

As to “GGGGTTCCTTGGGTTCTAACCTGTTGCGT (site GGGGTTCCTAG)”, the “recombinant barcode read abundance (log10)” value was found to be 1.35.

With “GGGGTTCCTTGGGTTCTAACCTGTTGCGT (site GGGGTTCCTAT)”, the “recombinant barcode read abundance (log10)” value is 1.85.

As for “GGGGTTCCTTGGGTTCTAACCTGTTGCTT (site GGGGTTCCTAA)”, the “recombinant barcode read abundance (log10)” value came out at 1.52.

For the sequence “GGGGTTCCTTGGGTTCTAACCTGTTGCTT (site GGGGTTCCTAC)”, the “recombinant barcode read abundance (log10)” value is 1.89.

On to “GGGGTTCCTTGGGTTCTAACCTGTTGCTT (site GGGGTTCCTAG)”, for which the “recombinant barcode read abundance (log10)” value was 1.36.

“GGGGTTCCTTGGGTTCTAACCTGTTGCTT (site GGGGTTCCTAT)”: the “recombinant barcode read abundance (log10)” value worked out at 1.17.

On to “GGGTAATCTTGGGTTCTAACCTGTTGCCT (site GGGTAAACTAG)”, for which the “recombinant barcode read abundance (log10)” value came out at 0.27.

These data come from the supplement of paper PMC11208160.
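Also: IS621 recombinase and bridge RNA in Escherichia coli cells.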
